Laboratory results taken from paper PMC10439952, “JT002, a small molecule inhibitor of the NLRP3 inflammasome for the treatment of autoinflammatory disorders” (Scientific Reports, 2023).

Assays:
Format in all cases: cell-based
NLRP3 inflammasome [1] = target: T1, NLRP3 inflammasome (Mus musculus, UniProt Q8R4B8); assay: Inhibition of IL-1β production in LPS + ATP stimulated mouse whole blood
Description: (§1) Inflammasome activation and whole blood assays were essentially carried out as described earlier. Details can be found in the supplementary information section accompanying this publication. A protocol for blood draws from healthy volunteers and use of the blood in preclinical assays was approved by Western Institutional Review Board, Inc (Puyallup, WA, USA). Informed consent was obtained from each donor prior to the first blood draw.
Cell viability was determined by addition of an equal volume of CellTiter-Glo® 2.0 reagent (Promega) to the remaining cells/supernatant in each well. Intracellular Caspase-1 activity was measured using the Caspase-Glo® assay (Promega) according to the manufacturer’s instructions. The biochemical capsase-1 assay was conducted at Reaction Biology Corporation (Malvern, USA). Human IL-1β, IL-1α, and TNFα and mouse IL-1β were measured in cell culture supernatants using homogeneous time resolved fluorescence assay kits (HTRF, Cisbio, Codolet, France). Human IL-18 was measured in cell culture supernatants using an ELISA kit (R&D Systems, Minneapolis, MN, USA). Plasma IL-1β concentrations were determined by Quantikine® ELISA (R&D Systems, Minneapolis, MN). […]
flagellin, prepared in Opt iMEM and combined with Lipofectamine 2000. […]

NLRP3 inflammasome [2] = target: T1, NLRP3 inflammasome; assay: Inhibition of IL-1β production in mouse BMDMs stimulated by LPS + monosodium urate crystals; set-up: host or cells: mouse PBMCs; mouse bone-marrow derived macrophages; mouse whole blood (C57BL/6 in the ex vivo study); conditions: Mouse BMDM, read-out: Geo Av IC50, IL-1β
Description: as §1
(§2) Cell viability was determined by addition of an equal volume of CellTiter-Glo® 2.0 reagent (Promega) to the remaining cells/supernatant in each well. Intracellular Caspase-1 activity was measured using the Caspase-Glo® assay (Promega) according to the manufacturer’s instructions. The biochemical capsase-1 assay was conducted at Reaction Biology Corporation (Malvern, USA). Human IL-1β, IL-1α, and TNFα and mouse IL-1β were measured in cell culture supernatants using homogeneous time resolved fluorescence assay kits (HTRF, Cisbio, Codolet, France). Human IL-18 was measured in cell culture supernatants using an ELISA kit (R&D Systems, Minneapolis, MN, USA). Plasma IL-1β concentrations were determined by Quantikine® ELISA (R&D Systems, Minneapolis, MN).
(§3) 4H). MS: m/z 433.1 (M+H+). […]

NLRP3 inflammasome [3] = target: T1, NLRP3 inflammasome; assay: Inhibition of IL-1β production in mouse BMDMs stimulated by LPS + nigericin; set-up: host or cells: mouse PBMCs; mouse bone-marrow derived macrophages; mouse whole blood (C57BL/6 in the ex vivo study); conditions: Mouse BMDM, read-out: Geo Av IC50, IL-1β
Description: as §1, §2, §3

T1 sequence (Q8R4B8 whole entry): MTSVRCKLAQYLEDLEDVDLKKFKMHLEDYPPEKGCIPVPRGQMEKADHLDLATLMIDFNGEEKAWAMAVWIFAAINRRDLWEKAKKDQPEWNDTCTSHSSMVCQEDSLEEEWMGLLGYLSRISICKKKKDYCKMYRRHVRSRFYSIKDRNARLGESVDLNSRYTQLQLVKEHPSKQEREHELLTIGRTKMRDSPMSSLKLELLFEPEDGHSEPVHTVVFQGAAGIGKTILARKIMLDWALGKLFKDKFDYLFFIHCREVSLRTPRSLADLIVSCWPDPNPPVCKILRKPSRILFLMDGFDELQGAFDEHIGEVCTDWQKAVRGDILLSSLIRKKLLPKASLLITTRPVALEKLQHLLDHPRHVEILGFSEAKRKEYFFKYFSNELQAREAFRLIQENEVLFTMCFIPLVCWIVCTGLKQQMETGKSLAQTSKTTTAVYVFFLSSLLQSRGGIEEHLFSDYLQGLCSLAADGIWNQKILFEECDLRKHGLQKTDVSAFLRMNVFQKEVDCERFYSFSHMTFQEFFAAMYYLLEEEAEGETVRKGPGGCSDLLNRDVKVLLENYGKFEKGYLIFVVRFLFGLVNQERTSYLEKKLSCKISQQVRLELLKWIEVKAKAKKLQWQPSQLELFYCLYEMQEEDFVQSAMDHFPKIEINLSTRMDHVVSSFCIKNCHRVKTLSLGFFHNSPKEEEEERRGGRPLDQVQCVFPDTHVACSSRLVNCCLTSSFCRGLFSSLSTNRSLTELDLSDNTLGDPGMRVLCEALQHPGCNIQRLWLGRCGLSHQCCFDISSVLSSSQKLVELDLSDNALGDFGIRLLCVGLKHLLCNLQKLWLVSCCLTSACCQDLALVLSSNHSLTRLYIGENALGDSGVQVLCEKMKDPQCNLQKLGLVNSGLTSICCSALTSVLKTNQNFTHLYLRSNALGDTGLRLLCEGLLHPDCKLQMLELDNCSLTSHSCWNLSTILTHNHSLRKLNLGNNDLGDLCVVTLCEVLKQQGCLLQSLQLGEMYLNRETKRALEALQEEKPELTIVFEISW

Structure (SMILES): CO[C@@H]1COc2c(S(=O)(=O)NC(=O)Nc3c4c(cc5c3CCC5)CCC4)cnn2C1 [JT002]
- IC90 (NLRP3 inflammasome [1]; IL-1β, read-out: in vitro mouse whole blood IC90): 716 nM
- IC50 (NLRP3 inflammasome [1]; read-out: Geo Av IC50, IL-1β): 94 nM
- IC50 (NLRP3 inflammasome [2]): 3 nM
- IC50 (NLRP3 inflammasome [3]): 23 nM
